Laboratory results published in patent EP0381514B1, “Use of N-methyl-sphingosine as inhibitor of cell growth” (The Biomembrane Institute, priority 1989, dated 1990).

How the values were obtained:
C-kinase = experiment: Inhibition of C-kinase activity (liposome method, histone III-S, 32P-ATP); assay type: biochemical, human; set-up: C-kinase ³²P incorporation: unit: cpm; details: for inhibitory activity of C-kinase: conclusion in words from Tables I, II and Figs. 2, 3; for C-kinase ³²P incorporation %: relative to phosphatidyl-serine, diolein, Ca⁺² control = 100; for Inhibition of C-kinase (concentration in »M yielding 50% inhibition): C-kinase from A431 cells
Procedure: A431 cells were grown in a mixture of DME and Ham's F-12 medium (weight ratio 1:1) supplemented with 10% fetal calf serum (FCS). […] Briefly, cells were scraped by rubber policeman, suspended in 50 ml of 20 mM Tris-HCL (pH 7.5), 2 mM EDTA, 0.5 mM EGTA, 0.15 U/ml aprotinine, and 0.25 M sucrose, and homogenized by 50 strokes at 4°C in a Dounce homogenizer (40-ml size, Wheaton). The homogenized cells were ultracentrifuged at 100,000 xg for 60 min. The supernatant was purified on a DE52 column equilibrated with 20 mM Tris-HCL (pH 7.5), 2 mM EDTA, and 0.5 mM EGTA (buffer B), and washed well with this buffer. The C-kinase activity was eluted with buffer B containing 0.1 M NaCl.
The lipid mixture was sonicated in 30 »l of 20 mM Tris-HCl (pH 7.5) for 30 min. The liposomes in the tube were supplemented with the reaction mixture, consisting of 25 mM Tris-HCl (pH 7.5), 10 mM MgCl₂, 400 »M EDTA, 50 »M EGTA, 500 »M CaCl₂, 200 »g/ml Histone III-S, and 20 »M gamma-[³²P]-ATP (2 x 10⁶ cpm); final volume was 90 »l.
The reaction was initiated by addition of 10 »l of C-kinase fraction (containing 1-2 »g protein) prepared as described above, and the reaction mixture was incubated for 10 min at 30°C. […] The value without phosphatidylserine, 1,2-diolein, or Ca²⁺ were used as a control.

[1] = system: human colonic cancer cells HRT-18; experiment: Inhibition of growth of human colonic cancer cells HRT-18 in vitro (cell count after 3 days); assay type: cell-based; details: HRT-18, 3 days
Procedure: HRT-18 cells were seeded in plates in Dulbecco's modified Eagle's medium supplemented with 10% fetal calf serum (5 x 10⁵ cells per each 3 cm plate). After the cells were cultured overnight, the medium was replaced with the same media containing various concentrations of N,N-dimethyl- or N-monomethyl sphingosine, N-acetylsphingosine, and ceramide as shown in Fig. 4. Cultures were continued for 3 days, and cell numbers were counted. The percent inhibition of cell numbers in the presence of reagents was calculated as percent of control dishes, which contained no sphingosine derivatives.

[2] = system: human peripheral blood lymphocytes; experiment: Inhibition of IL-2-dependent mitogenesis (3H-thymidine incorporation), human lymphocytes; assay type: cell-based; details: 0.5 U/ml IL-2
Procedure: Human peripheral blood lymphocytes isolated from human blood by known methods were cultured in RPMI containing 0.5 U/ml IL-2. […] Mitogenesis was measured by incorporation of ³H-thymidine into DNA over a 5-hour period. Percent inhibition as compared to the control value (without addition of any inhibitor) was determined.

[3] = system: human peripheral blood lymphocytes; experiment: Inhibition of concanavalin-A-induced mitogenesis (3H-thymidine uptake), human lymphocytes; assay type: cell-based; details: 2 »g con-A/ml
Procedure: Peripheral blood lymphocytes isolated from human blood by known methods were cultured in RPMI containing 2 »g con-A/ml for 18 hours in multiple wells. Subsequently, various concentrations of N,N-dimethylsphingosine, sphingosine, or N-acetylsphingosine as shown in Fig. 6 were added to the culture media and cultured continuously for 5 hours, followed by addition of ³H-thymidine. The thymidine uptake over a 5-hour period was determined. The % inhibition of mitogenesis was calculated based on control value (without addition of any inhibitor).

HRT18 tumor cells = experiment: Inhibition of in vivo growth of HRT18 tumor cells in nude mice; details: 44 »g/200 »l in PBS injected at day 7, 11 and 15; tumor weight estimated by size; significant (p>0.005 as printed)
Procedure: The effect of N,N-dimethyl-sphingosine (prepared from naturally occurring sphingolipid as described in Example 3) on in vivo growth of HRT18 tumor cells in nude mice was determined as follows.
1 x 10⁶ HRT-18 human colonic cancer cells were inoculated into nude mice at day 0 by known methods. N,N-dimethylsphingosine emulsified in phosphate buffered saline (PBS) (44 »g/200 »l) was injected at day 7, 11, and 15. Tumor growth weight in mg was estimated by the size of the tumors. Each group consisted of ten animals.

mouse splenocytes [4] = experiment: Inhibition of concanavalin-A-induced mitogenesis, mouse splenocytes; assay type: cell-based
Procedure: The effect of N,N-dimethyl-sphingosine (prepared from naturally occurring sphingolipid as described in Example 3) on conconavalin-A (con-A) -induced mitogenesis was tested using human peripheral blood lymphocytes and mouse splenocytes.
Inhibition of con-A-induced mitogenisis of mouse splenocytes was determined in an analogous manner.

mouse splenocytes [5] = experiment: Inhibition of IL-2-dependent mitogenesis, mouse splenocytes; assay type: cell-based
Procedure: The effect of N,N-dimethyl-sphingosine (prepared from naturally occurring sphingolipid as described in Example 3) on IL-2-dependent mitogenesis was tested using human peripheral blood lymphocytes and mouse splenocytes.
Inhibition of IL-2-induced mitogenesis of mouse splenocytes was determined in an analogous manner.

**Q.** With `CCCCCCCCCCCCC/C=C/[C@@H](O)[C@@H](N)CO` [D-erythro-sphingenine, D(+)-erythro-sphingenine, reference compound] as the compound, how does the “inhibitory activity of C-kinase” value (C-kinase) read?
**A.** The value was “weak and similar inhibitory activity”.

**Q.** And the “C-kinase ³²P incorporation” value (C-kinase; lipid added at 50 »M)?
**A.** The value was 18754 ± 2184.

**Q.** And the “C-kinase ³²P incorporation %” value (C-kinase; lipid added at 50 »M, 50 µM)?
**A.** Its value is 47 ± 6%.

**Q.** Which “inhibition of cell growth” value ([1]; at 150 »M concentration) does the source give for `CCCCCCCCCCCCC/C=C/[C@@H](O)[C@H](CO)NC(C)=O` [N-acetylsphingosine, reference compound] here?
**A.** The value was “minimum inhibition”.

**Q.** What about the “Inhibition of C-kinase (concentration in »M yielding 50% inhibition)” value (C-kinase) of the same compound?
**A.** The value was “no inhibition”.

**Q.** What about the “inhibition of IL-2-dependent mitogenesis” value [2] of the same compound?
**A.** The value was “less so”.

**Q.** With `CCCCCCCCCCCCC/C=C/[C@H](O)[C@H](CO)N(C)C` [N,N-dimethyl-L-threo-sphingosine] as the compound, how does the “inhibition of cell growth” value ([1]; at 12.5 »M concentration) read?
**A.** Its value is “significantly inhibited”.

**Q.** For `CCCCCCCCCCCCC/C=C/[C@@H](O)[C@@H](N)CO` [sphingosine], which “inhibition of IL-2-dependent mitogenesis” value [2] is on record?
**A.** Its value is “less so”.

**Q.** With `CCCCCCCCCCCCC/C=C/[C@@H](O)[C@H](CO)N(C)C` [N,N-dimethyl-sphingosine] as the compound, how does the “inhibition of con-A-dependent growth stimulation” value [3] read?
**A.** Its value is “greatly inhibited”.

**Q.** And the “inhibition of cell growth” value ([1]; at 12.5 »M concentration)?
**A.** The value was “significantly inhibited”.

**Q.** What about the inhibition of growth (HRT18 tumor cells) of the same compound?
**A.** The inhibition of growth was “more than 50%”.

**Q.** And the “inhibitory effect on concanavalin-A-induced mitogenesis” value (mouse splenocytes [4])?
**A.** Its value is “strong inhibitory effect”.

**Q.** And the “inhibitory effect on IL-2-dependent mitogenesis” value (mouse splenocytes [5])?
**A.** The value was “strong inhibitory effect”.

**Q.** What about the “inhibition of IL-2-dependent mitogenesis” value [2] of the same compound?
**A.** Its value is “invariably inhibited”.

**Q.** How did the “inhibitory activity of C-kinase” value (C-kinase) turn out when `CCCCCCCCCCCCC/C=C/[C@H](O)[C@H](N)CO` [L-erythro-sphingenine, L(-)-erythro-sphingenine, reference compound] was run?
**A.** Its value is “weak and similar inhibitory activity”.

**Q.** What about the “C-kinase ³²P incorporation” value (C-kinase; lipid added at 50 »M) of the same compound?
**A.** Its value is 18549 ± 2760.

**Q.** What about the “C-kinase ³²P incorporation %” value (C-kinase; lipid added at 50 »M, 50 µM) of the same compound?
**A.** Its value is 47 ± 7%.

**Q.** Ceramide [reference compound] was tested. Which “inhibition of cell growth” value ([1]; at 150 »M concentration) did it give?
**A.** The value was “minimum inhibition”.

**Q.** What about the “Inhibition of C-kinase (concentration in »M yielding 50% inhibition)” value (C-kinase) of the same compound?
**A.** The value was “no inhibition”.

**Q.** For “Lactosylsphingosine [reference compound]”, which “Inhibition of C-kinase (concentration in »M yielding 50% inhibition)” value (C-kinase) is on record?
**A.** The value was “no inhibition”.

**Q.** N-monomethyl-sphingosine was tested. Which “inhibition of cell growth” value ([1]; at 12.5 »M concentration) did it give?
**A.** The value was “significantly inhibited”.

**Q.** `CCCCCCCCCCCCC/C=C/[C@@H](O)[C@H](CO)N(C)C` [N,N-dimethyl-D-erythro-sphingenine] was tested. Which “inhibitory activity of C-kinase” value (C-kinase) did it give?
**A.** The value was “strikingly strong inhibitory activity”.

**Q.** What about the “C-kinase ³²P incorporation” value (C-kinase; lipid added at 2 »M) of the same compound?
**A.** Its value is 34206 ± 1220.

**Q.** What about the “C-kinase ³²P incorporation %” value (C-kinase; lipid added at 2 »M, 2 µM) of the same compound?
**A.** Its value is 86 ± 3%.

**Q.** What about the “C-kinase ³²P incorporation” value (C-kinase; lipid added at 10 »M) of the same compound?
**A.** The value was 20563 ± 1173.

**Q.** What about the “C-kinase ³²P incorporation %” value (C-kinase; lipid added at 10 »M, 10 µM) of the same compound?
**A.** Its value is 52 ± 3%.

**Q.** What about the “C-kinase ³²P incorporation” value (C-kinase; lipid added at 25 »M) of the same compound?
**A.** The value was 15214 ± 377.

**Q.** What about the “C-kinase ³²P incorporation %” value (C-kinase; lipid added at 25 »M, 25 µM) of the same compound?
**A.** Its value is 38 ± 1%.

**Q.** And the “C-kinase ³²P incorporation” value (C-kinase; lipid added at 50 »M)?
**A.** Its value is 5254.

**Q.** And the “C-kinase ³²P incorporation %” value (C-kinase; lipid added at 50 »M, 50 µM)?
**A.** Its value is 13%.

**Q.** Which results are given for `CCCCCCCCCCCCC/C=C/[C@H](O)[C@@H](CO)N(C)C` [N,N-dimethyl-L-erythro-sphingenine]?
**A.** inhibitory activity of C-kinase (C-kinase): weaker inhibitory activity; C-kinase ³²P incorporation (C-kinase; lipid added at 2 »M): 37354 ± 1420; C-kinase ³²P incorporation % (C-kinase; lipid added at 2 »M, 2 µM): 95 ± 4%; C-kinase ³²P incorporation (C-kinase; lipid added at 10 »M): 25583 ± 1931; C-kinase ³²P incorporation % (C-kinase; lipid added at 10 »M, 10 µM): 65 ± 5%; C-kinase ³²P incorporation (C-kinase; lipid added at 25 »M): 21743 ± 577; C-kinase ³²P incorporation % (C-kinase; lipid added at 25 »M, 25 µM): 55 ± 2%; C-kinase ³²P incorporation (C-kinase; lipid added at 50 »M): 11020; C-kinase ³²P incorporation % (C-kinase; lipid added at 50 »M, 50 µM): 28%
